Here are results for 27 molecules from PubChem BioAssay (NCI).

Where “and” joins values, the source holds several entries; their conditions need not be identical. Equal entries are not always repeated.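 Compound exposure: 48 hours, 5 concentrations, 96-well plates. GI50: concentration for 50% inhibition of growth. TGI marks complete inhibition of growth.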 Where a SMILES comes first, the peptide text is derived from it. [ ]: non-standard residue; d: D form. The star is where a group is joined. ξ: configuration not given here. X16 = COC1=CC(=O)N(C(=O)C(O*)C(C)C)C1Cc1ccccc1; ξNMe2Val = CC(C)C(C(=O)*)N(C)C; NMeV = CN[CH](C(=O)O)C(C)C; hSer = N[CH](CCO)C(=O)O; Boc = CC(C)(C)OC(=O)*

Experiment in all cases: NCI tumour cell line growth inhibition, 48 h
Experiment [1] has as its system SW-620 colon.
The test system of experiment [2] is SF-268 CNS.
In experiment [3] the test system is IGROV1 ovarian.
The subject of experiment [4] is LOX IMVI melanoma.
The test system of experiment [5] is SF-295 CNS.
For experiment [6], the system named is RXF 393 renal.
The test system of experiment [7] is ACHN renal.
Experiment [8] deals with HCT-116 colon.
Experiment [9] relates to HS 578T breast.
Experiment [10] deals with CAKI-1 renal.

With `CN(NC(=O)c1ccco1)C1=NCCCCN1`, the TGI in [1], in experiment [2], in experiment [3], in experiment [4], in experiment [5] and in [6] was above 100 µM each time. Moreover, the TGI in [7], in [8] and in experiment [9] was above 100 µM throughout.

Regarding `CC(C)CN1CN(c2ccccc2)C2(CCN(CC(C)(c3ccc(F)cc3)C3OCCO3)CC2)C1=O` (stereo not drawn), the TGI in experiment [1] was 17.5 µM; in [10] it was 24.4 µM; in experiment [2] it was 30.1 µM; in experiment [4], 5.31 µM; in experiment [5] it was 10.9 µM; in experiment [6], 21.9 µM. The TGI in [7] stood at 15 µM; in [8], 13.9 µM; in experiment [9], 16.8 µM.

Take `N#Cc1[nH]c(=O)n(-c2ccc([N+](=O)[O-])cc2)c1N`: the TGI in experiment [1], in experiment [2], in [3], in experiment [4], in [5] and in [6] was above 10 µM throughout. The TGI in [7], in experiment [8] and in experiment [9] was above 10 µM throughout.

With `CC12CC3c4ccccc4CN1C3(c1ccccc1)OC2=O` (stereo not drawn), the TGI in experiment [1], in [10], in experiment [2], in experiment [3], in experiment [4] and in [5] was above 100 µM throughout. Besides, the TGI in [6], in experiment [7], in [8] and in [9] was above 100 µM each time.

Regarding `O=C(CCSC(CC(=O)c1ccc(Cl)cc1)c1ccc(Cl)cc1)Nc1ccc(Cl)cc1` (stereo not drawn), the TGI in experiment [1] worked out at 10.5 µM; in [10], 57.2 µM; in experiment [2], 29 µM; in experiment [3], 29.6 µM; in [4], 18.3 µM; in experiment [5], 25.8 µM. The TGI in experiment [6] stood at 28.2 µM; in experiment [7], 27.5 µM; in experiment [8] it was 18.5 µM; in experiment [9] it was 64.1 µM.

As for `COc1c2nc(CCl)n(C)c(=O)c2c(OC)c2c(=O)n(C)c(CCl)nc12`, the TGI in experiment [1] was 2.6 µM; in experiment [10], 2.94 µM; in [2], 4.52 µM; in [3], 4.56 µM; in [4], 1.75 µM; in experiment [5] it was 5.16 µM. Further, the TGI in experiment [6] was found to be 4.14 µM; in [7], 2.43 µM; in experiment [9] it was 95 µM.

With `COc1c(C2(c3ccc(F)cc3)SCCCS2)c(=O)c1=O`, the TGI in experiment [1], in experiment [10], in [2], in experiment [4], in [5] and in experiment [6] was above 100 µM throughout. The TGI in experiment [7], in [8] and in experiment [9] was above 100 µM in each case.

For `CCOC(=O)c1cc2cc(Cc3ccc4[nH]c(C(=O)OCC)cc4c3)ccc2[nH]1`, the TGI in [1] is above 100 µM; in [10], 34.3 µM; in experiment [2], 38.5 µM; in experiment [3], 35.7 µM; in experiment [4], above 100 µM; in [5], 55.5 µM. The TGI is 29.4 µM in [6], 44 µM in [7], above 100 µM in experiment [8] and 72.8 µM in experiment [9].

Consider `COc1ccc(NC(=S)NN=C(C)c2cccc(C(C)=NNC(=S)Nc3ccc(OC)cc3)n2)cc1`, for which the TGI in experiment [1], in experiment [10], in [2], in [3], in experiment [4] and in [5] was above 100 µM each time. Besides, the TGI in experiment [6], in experiment [7], in experiment [8] and in experiment [9] was above 100 µM in each case.

`Cc1cc(Br)c(N2C3=C(CC4=C2CCCC4=O)C(=O)CCC3)c(Br)c1`: the TGI in [1] was above 100 µM; in [10] it was above 100 µM; in [2], above 100 µM; in experiment [3], above 100 µM; in [4], above 100 µM; in experiment [6] it was 84.7 µM. In addition, the TGI in experiment [7] and in [9] was above 100 µM each time.

For `C/C(=N\Nc1nc2cc(C)ccc2s1)c1ccccn1`, the TGI is above 20.2 µM in experiment [1]; 9.18 µM in experiment [10]; 9.14 µM in [2]; 3.68 µM in [4]; above 40.9 µM in experiment [5]; above 22.9 µM in [6]. The TGI in experiment [7] worked out at 11 µM; in experiment [9], 39 µM.

On to `O=C1CC(NC(=O)C(F)(F)F)c2c(Br)sc(N3CCC(c4ccccc4)CC3)c21` (stereo not drawn), for which the TGI in experiment [1] was above 100 µM; in [10], 43.8 µM; in experiment [2], above 100 µM; in experiment [3] it was above 100 µM; in experiment [4] it was above 100 µM; in experiment [5] it was 28.7 µM. Also, the TGI in experiment [6] was 88.3 µM; in experiment [7], above 100 µM; in experiment [8] it was above 100 µM; in experiment [9], 79.6 µM.

As to `N/C(CC/C(N)=N\O)=N\O`, the TGI in experiment [1], in experiment [10], in experiment [2], in [3], in [4] and in experiment [5] was above 100 µM each time. Besides, the TGI in [6], in experiment [7], in [8] and in experiment [9] was above 100 µM throughout.

Consider `CCCCCCCCCCCCNC(=O)NCC(OCC)OCC`, for which the TGI in experiment [1], in [10], in experiment [2], in experiment [3], in experiment [4] and in experiment [5] was above 10 µM throughout. Moreover, the TGI in experiment [6], in experiment [7], in experiment [8] and in experiment [9] was above 10 µM throughout.

As for `COC1/C=C\C=C(/C)C(=O)NC2=CC(=O)C(NCCCl)=C(CC(C)CC(OC)C(O)C(C)/C=C(/C)C1OC(N)=O)C2=O` (stereo not drawn), the TGI amounted to 2.55 µM in [1]; 8.67 µM in experiment [10]; 14 µM in experiment [2]; 13.6 µM in experiment [3]; 0.575 µM in experiment [4]; 8.39 µM in experiment [5]. Also, the TGI was found to be 1.2 µM in experiment [6], 10.2 µM in experiment [7], 2.88 µM in [8] and 58.4 µM in experiment [9].

Turning to `COCCC(NC(=O)C(CC(C)C)NC(=O)OC(C)(C)C)C(N)=O` (stereo not drawn) (Boc-Leu-[hSer](Me)-NH2; configuration not given here), the TGI in experiment [1], in [10], in experiment [2], in experiment [3], in [4] and in experiment [5] was above 100 µM in each case. Further, the TGI in [6], in experiment [7], in [8] and in experiment [9] was above 100 µM throughout.

In the case of `CC(=O)N[C@@H](Cc1ccc(O)cn1)C(=O)NCc1cccc(F)c1`, the TGI in [1], in [10], in experiment [2], in [3], in experiment [4] and in experiment [5] was above 100 µM in each case. Moreover, the TGI in experiment [6], in [7], in [8] and in experiment [9] was above 100 µM throughout.

In the case of `CCOC(=O)CC(C)C(C#N)(OP1(=O)OC(c2ccccc2)C(C)N1C)c1ccccc1` (stereo not drawn), the TGI in [1], in experiment [10], in experiment [2], in [3], in experiment [4] and in experiment [5] was above 100 µM in each case. Besides, the TGI in experiment [6], in experiment [7], in experiment [8] and in experiment [9] was above 100 µM in each case.

Consider `Fc1cccc(F)c1C1SCC2=Nc3ccccc3CN21` (stereo not drawn), for which the TGI in [1] is above 100 µM; in experiment [10], above 100 µM; in experiment [3] it was above 100 µM; in experiment [4], above 100 µM; in [5], above 100 µM; in experiment [6], 63.2 µM. Besides, the TGI in [7], in experiment [8] and in experiment [9] was above 100 µM each time.

With `c1ccc(COc2ccc(C[P+](c3ccccc3)(c3ccccc3)c3ccccc3)cc2)cc1`, the TGI in experiment [1] turned out to be 10.2 µM; in [10] it was 20.2 µM; in experiment [2] it was 14.2 µM; in experiment [3], 12.3 µM; in [4] it was 2.56 µM; in experiment [5], 2.97 µM. Moreover, the TGI in experiment [6] was found to be 0.361 µM; in [7] it was 6.39 µM; in experiment [8], 1.68 µM; in experiment [9], 3.19 µM.

Take `CN(C)CC1CCC/C(=C\c2ccc(N(C)C)cc2)C1=O` (stereo not drawn): the TGI worked out at 3.29 µM in experiment [1]; 3.3 µM in [10]; 3.57 µM in experiment [2]; 11.8 µM in experiment [3]; 3.16 µM in [4]; 32.2 µM in experiment [5]. In addition, the TGI amounted to 21.2 µM in experiment [6], 34 µM in experiment [7], 10.1 µM in experiment [8] and 26 µM in experiment [9].

For the molecule `O=C1N[C@H]2c3c(Cl)sc(Cl)c3C(=O)[C@H]2O1`, the TGI was 7.71 µM in experiment [1]; 49.5 µM in experiment [10]; 37 µM in [2]; 14.4 µM in experiment [3]; 13.9 µM in [4]; 34.6 µM in experiment [5]. In addition, the TGI in experiment [6] was above 79.8 µM; in experiment [7], 35.6 µM; in experiment [8], above 35.6 µM; in [9] it was 43.5 µM.

Take `C[N+]1(C)C2Cc3ccccc3C1Cc1ccccc12`: the TGI in [1], in experiment [2], in experiment [3], in experiment [4], in experiment [5] and in experiment [6] was above 100 µM throughout. Besides, the TGI in experiment [7], in experiment [8] and in [9] was above 100 µM throughout.

In the case of `COc1ccc2nc3ccc(OC)cc3c(S(=O)Cc3ccc([N+](=O)[O-])cc3)c2c1` (stereo not drawn), the TGI in experiment [10] worked out at 28.6 µM; in experiment [2], 47.5 µM; in [3], 11.1 µM; in [4], 34.7 µM; in experiment [5], 41.8 µM; in experiment [6] it was 28.6 µM. The figures for the TGI in [7], in [8] and in experiment [9] were 11.2 µM, 3.12 µM and 25.9 µM, respectively.

As to `CCOC(=O)NNC(=O)NCCNC(=O)NNC(=O)OCC`, the TGI in experiment [1], in experiment [10], in experiment [2], in experiment [4], in experiment [6] and in experiment [8] was above 100 µM in each case. In experiment [9], this molecule displayed a TGI above 100 µM.

In the case of `Cc1ncc([N+](=O)[O-])n1CCN(C)CCCCn1ccnc1[N+](=O)[O-]`, the TGI in experiment [1], in experiment [10], in experiment [2], in experiment [4], in experiment [5] and in [6] was above 100 µM in each case. Besides, the TGI in [7], in [8] and in [9] was above 100 µM throughout.

Regarding `COC1=CC(=O)N(C(=O)C(OC(=O)C2CCCN2C(=O)C2CCCN2C(=O)C(C(C)C)N(C)C(=O)C(NC(=O)C(C(C)C)N(C)C)C(C)C)C(C)C)C1Cc1ccccc1` (stereo not drawn) (ξNMe2Val-V[NMeV]PP-X16; configuration not given here), the GI50 in experiment [1], in experiment [10], in experiment [2], in experiment [3], in experiment [4] and in experiment [5] was below 0.0004 µM each time. In experiment [6], the GI50 was below 0.0004 µM. Further, the TGI in [1] is above 4 µM; in experiment [10], above 4 µM; in experiment [2], 0.31 µM; in experiment [3], above 4 µM; in experiment [4] it was above 4 µM; in experiment [5], 0.0074 µM and 0.00436 µM. This molecule also had a TGI in [9] of 0.000903 µM.
